Measurements from patent publication US20200375963A1 (priority 2017, published 2020).

How the values were obtained:
Format in all cases: cell-based, human
HIF-1α [1] = assay: HIF-1α immunoblot of CD14+ and CD14− primary cells
Protocol: (§1) Leukoreduction filters (Terumo BCT, Lakewood, Colo.), waste products of platelet donation process, were used to isolate PBMCs by an IRB-approved protocol. PBMCs were isolated using Histopaque-1077 (Sigma). Monocyte-enriched PBMCs (MEPs) were prepared using cold-aggregation method with slight modifications (30,60) Monocytes were isolated from MEPs or PBMCs using EasySep Human CD14 Positive Selection Kit (STEMCELL Technologies). Flow cytometric verification of isolated CD14+ cells were performed using RPCI core facility services. The MEPs were cultured at an average density of 25-35×10^6/ml in 1 or 2 ml per well in 6- or 12-well standard tissue culture plates under standard conditions (37° C./5% CO2) in RPMI-1640 medium with 10% FBS, 100 U/ml penicillin and […] streptomycin (Mediatech). Isolated CD14+ and CD14− cells were cultured at approximately 5×10^6 cell/ml and 7×10^6 cells per ml densities, respectively. THP-1 and TLA-HEK293T cell lines were purchased from ATCC, and Open Biosystems®, respectively, and cultured in recommended conditions. THP-1 cells were cultured in 10^6 cells per 100 μl in 96-well culture plates in ATCC-formulated-1640 medium (30-2001), whereas 293T cells were cultured in DMEM medium supplemented with 10% FBS.
(§2) Cells were cultured under 1% or 6% O2, 5% CO2 and 94% N2 at 37° C. using Xvivo System (Biospherix). Human ‘universal’ type I IFN was obtained from PBL Assay Science and used at 600 U/ml. Atpenin A5 (Cayman chemical #11898), myxothiazol (Sigma-Aldrich, #T5580) and 2-Thenoyltrifluoroacetone (TTFA) (Sigma-Aldrich, #T27006) were used at 1-2 μM and 400 μM final concentrations, respectively. DFO (Sigma-Aldrich #D9533) and DMOG (Sigma-Aldrich #D3695) were used in 0.5 mM and 1.0 mM final concentrations, respectively.
(§3) 2× Laemmeli buffer (BIO-RAD) was used to prepare whole cell lysates. The lysate resuspended in the Laemmeli buffer was heated at 95° C. for 15 minutes, and 40 μl of the sample was used to perform gel electrophoresis on pre-cast, 4%-15% gradient polyacrylamide gels (Mini-PROTEAN TGX, Bio-Rad) in Laemmeli buffer system. Mouse monoclonal anti-HIF1α (product number GTX628480, GT10211; 1:1000 dilution) and mouse monoclonal anti-β-actin (product number AM4302, AC-15; 1:15,000 dilution) was used to detect HIF-1α or actin, respectively followed by incubation with HRP-conjugated goat anti-mouse antibodies (Life Technologies) at 1:2000 dilution.

[2] = test system: A3A-mediated RNA editing (SDHB c.136 C>U) in monocyte-enriched PBMCs (MEPs); assay: SDHB c.136 C>U RNA editing in monocyte-enriched PBMCs (allele specific RT-qPCR)
Protocol: as §1, §2
(§4) RNA and plasmid DNA were isolated with commercial kits (TRIzol, Life Technologies and Qiagen, respectively). RNA/DNA was quantified by Nanodrop 2000 (Thermo Fisher). Proteins were quantified using Bio-Rad Dc assay with BSA standards. RNA was reverse transcribed with the Transcriptor First Strand cDNA Synthesis (Roche) kit. SDHB c.136C>U RNA editing was quantified by allele specific RT-qPCR PCR oligonucleotide primers (FIG. 13) were obtained from Integrated DNA Technologies, Inc. ADM, ELL2, HILPDA, NGLY1, MET, TKTL1, VEGFA and B2M gene expression levels was assessed by qPCR using FastStart Taq DNA polymerase and SYBR Green I dye on a LightCycler 480 System (Roche). Quantification cycle values were calculated by the instrument software using the maximum second derivative method and the mean quantification cycle value of duplicate PCR reactions was used for analysis. Delta delta CT method is used to infer gene expression changes.

[3] = test system: hypoxia-related gene expression in CD14+ monocytes; assay: Gene expression in CD14+ monocytes (RNA seq, RT-qPCR); conditions: for mRNA expression of VEGFA and HILPDA: isolated CD14+ monocytes, normoxia, 1 day, n=3 donors
[4] = test system: SDHB c.136C>U RNA editing in CD14+ monocytes; assay: SDHB c.136C>U RNA editing in CD14+ monocytes isolated after culture of MEPs; conditions: CD14+ cells, AtA5/normoxia 2 days, n=3 donors; normoxic controls 5.4%±1.7%
Source text: We examined whether MTCII also regulates induction of gene expression in primary monocytes under hypoxia or when inactivated, as observed in SDH-mutated paragangliomas. To test the impact of MTCII inhibition on monocyte gene expression, we cultured MEPs (n=3 donors) in normoxia (1 day), hypoxia (1 day) and AtA5/normoxia (2 days), isolated CD14+ monocytes and performed RNA seq analysis. […] HIF1A but not EPAS1 (HIF2A) or HIF3A is expressed robustly (RPKM averages 21.5, 0.17 and 0.01, respectively) in monocytes. […]
as §4, with “RNA was reverse transcribed with the Transcriptor First Strand cDNA Synthesis (Roche) kit.” left out, “Delta delta CT method is used to infer gene expression changes.” left out

HIF-1α [5] = assay: HIF-1α immunoblot of HEK293T cells
Protocol: as §1, §2, §3

HIF-1α [6] = assay: HIF-1α immunoblot of THP-1 cells
Protocol: as §1
Cells were cultured under 1% or 6% O2, 5% CO2 and 94% N2 at 37° C. using Xvivo System (Biospherix). […]

[7] = test system: hypoxia-regulated genes (HILPDA, VEGFA) in THP-1 cells; assay: RT-qPCR of hypoxia-regulated genes in THP-1 cells; conditions: THP-1, normoxia or hypoxia (1%), 24 hours, HILPDA and VEGFA
Protocol: (§5) Leukoreduction filters (Terumo BCT, Lakewood, Colo.), waste products of platelet donation process, were used to isolate PBMCs by an IRB-approved protocol. PBMCs were isolated using Histopaque-1077 (Sigma). Monocyte-enriched PBMCs (MEPs) were prepared using cold-aggregation method with slight modifications (30,60) Monocytes were isolated from MEPs or PBMCs using EasySep Human CD14 Positive Selection Kit (STEMCELL Technologies). Flow cytometric verification of isolated CD14+ cells were performed using RPCI core facility services. […]
as §4, with “RNA was reverse transcribed with the Transcriptor First Strand cDNA Synthesis (Roche) kit.” left out, “Delta delta CT method is used to infer gene expression changes.” left out

[8] = test system: monocyte-enriched PBMCs (MEPs); assay: Oxygen consumption in MEPs (MitoXpress-Xtra phosphorescent oxygen probe); conditions: approximately 3 hours, n=3 donors
Protocol: (§6) We first measured oxygen consumption and L-lactate levels to confirm the effect of AtA5 and MXT on mitochondrial respiration in MEPs. We used a phosphorescent oxygen probe (MitoXpress-Xtra) which is quenched by oxygen. Cellular respiration in a closed system depletes oxygen and increases the fluorescence. […] Normoxic induction of RNA editing by MXT is also confirmed in a separate experiment from three additional donors (FIG. 11).
(§7) Oxygen consumption was measured using phosphorescent oxygen probe, MitoXpress-Xtra (Cayman Dual Assay Kit, item no. 601060). Monocytes were enriched to >50% purity by short-term cold aggregation and first cultured in standard conditions for 24 hours without treatment to stimulate metabolic activity. Cells were then centrifuged at 200×g for 7 minutes and resuspended in 1 ml RPMI/1% FBS with or without mitochondrial inhibitors. Cells are covered by mineral oil after addition of MitoXpress-Xtra following manufacturer's protocol. The fluorescence was kinetically measured on a plate reader (Synergy H1) at 20 sec intervals for approximately 3 hours (delay 70 μsec, collection time 30 μsec). Supernatants of the oxygen consumption assay were used to measure L-lactate levels following manufacturer's instructions.

[9] = test system: hypoxia-regulated genes (ELL2, VEGFA) in 293T cells; assay: RT-qPCR of hypoxia-regulated genes in 293T cells; conditions: normoxia and hypoxia (1% O2), 24 hours
Protocol: as §5
as §4, with “RNA was reverse transcribed with the Transcriptor First Strand cDNA Synthesis (Roche) kit.” left out, “Delta delta CT method is used to infer gene expression changes.” left out

[10] = test system: hypoxia-response elements (HRE) from PGK1, a HIF-1α target gene; assay: HRE-luciferase reporter in HEK293T cells; conditions: 293T
Protocol: It is possible that HIF-1α may have degraded depending on cell type, time of analysis (24 h) or another factor. Therefore, we further examined the effect of AtA5 in HEK293T embryonic kidney cell line and THP-1 monocytic leukemia cell line over a 24 hour period. Several studies in cell lines have reported normoxic stabilization of HIF-1α upon knocking down MTCII (Selak et al., (2005), Cancer. Cell, 7, 77-85, Guzy et al., (2008), Mol. Cell. Biol., 28, 718-731, Cervera et al., (2008), Cancer Res., 68, 4058-4067). […] Since AtA5 appeared to suppress HIF-1α in mild hypoxia, we exposed the cells to both 6% and 1% O2. […] To confirm the suppression of HIF-regulated gene expression, we used a plasmid construct expressing firefly luciferase under the control of three hypoxia-response elements […] from PGK1, a HIF-1α target gene.
HEK293T cells were cotransfected with the 400 ng of HRE-luciferase (Addgene, plasmid #26731), 1 ng of pRL-SV40 plasmid, 600 ng of pcDNA 3.1(+) (control empty vector) per well at ˜50-60% confluency using jetPRIME (Polyplus-transfection) in 12-well culture plates as per the manufacturer's instructions. Transfection efficiency was 60%-80% as assessed by fluorescent microscopy of cells co-transfected with the pLemiR plasmid DNA (Open Biosystems) for expression of a red fluorescent protein. Cells were harvested 2 days after transfection for measurement of their HRE and Renilla luciferase activities using Dual-Luciferase Reporter Assay System (Promega). HRE expression was quantified as a ratio of HRE/Renilla luciferase activities.

[11] = test system: monocyte-enriched PBMCs (MEPs); assay: L-Lactate levels in extra-cellular media of MEPs; conditions: supernatants of the oxygen consumption assay
Protocol: as §6, §7

[12] = hypoxia (1% O2), monocytes isolated from PBMCs then cultured 24 hours, three donors
[13] = normoxia, monocytes isolated from PBMCs then cultured 24 hours
[14] = inhibitor jointly with hypoxia (1% O2), compared to hypoxia alone
[15] = HEK293T, normoxia, 24 hours, DMOG 1 mM, DFO 0.5 mM, AtA5 1 μM

SMILES | HIF-1α stabilization (western blot) (HIF-1α [1]; [12]) | HIF-1α stabilization (western blot) (HIF-1α [1]; [13]) | SDHB c.136 C>U RNA editing [2, 14] | SDHB c.136 C>U RNA editing ([2]; normoxia, 1-3 days) | mRNA expression of VEGFA and HILPDA [3] | stabilization of HIF-1α (HIF-1α [5]; 293T, 1% O2, 24 hours) | stabilization of HIF-1α (HIF-1α [5]; 293T, 6% O2, 24 hours) | stabilization of HIF-1α (HIF-1α [5]; [15]) | expression of hypoxia-regulated genes [7] | oxygen consumption [8] | expression of hypoxia-regulated genes [9] | HRE-driven expression (ratio of HRE/Renilla luciferase activities) ([10]; 6% O2, 24 hours) | L-Lactate levels [11] | further results
COc1[nH]c(O)c(C(=O)[C@@H](C)C[C@H](C)[C@@H](Cl)CCl)c(=O)c1OC [AtA5, 3-((2S,4S,5R)-5,6-dichloro-2,4-dimethylhexanoyl)-2-hydroxy-5,6-dimethoxypyridin-4(1H)-one] | appeared to enhance the stabilization of HIF-1α in hypoxic monocytes in two of three donors | did not robustly stabilize HIF-1α | did not further increase RNA editing levels | induced SDHB c.C136U RNA editing | statistically significantly increased | only at 6% O2 | inhibited stabilization of HIF-1α only at 6% O2 | not AtA5 stabilized HIF-1α | suppressed | reduced but did not abolish it | suppressed | statistically significantly suppressed | increased relative to the degree of respiratory inhibition | SDHB c.136 C>U RNA editing, AtA5 together with IFN1 ([2]; hypoxia with IFN1): no additional effect; SDHB c.136 C>U RNA editing, AtA5 together with IFN1 ([2]; normoxia, IFN1 600 U/ml): additive; expression of selected genes (ADM, ELL2, HILPDA, NGLY1, MET, TKTL1 and VEGFA), RT-qPCR ([3]; CD14+ cells, AtA5/normoxia day 2): induction of selected highly-expressed genes; transcriptional upregulation of A3A ([3]; CD14+ cells, AtA5/normoxia, RNA seq): without transcriptional upregulation of A3A; RNA editing in genes other than SDHB ([3]; CD14+ cells, RNA seq analysis): induction of RNA editing in genes other than SDHB; SDHB c.136C>U RNA editing (mean±SEM) [4]: 32.1%±14.9%; weak HIF-1α expression in normoxia (HIF-1α [5]; HEK293T, normoxia, 24 hours, AtA5 1 μM): suppressed the weak HIF-1α expression in normoxia; stabilization of HIF-1α (HIF-1α [6]; THP-1, normoxia, 24 hours): antagonized weak normoxic stabilization of HIF-1α
CC(=O)N(O)CCCCCNC(=O)CCC(=O)N(O)CCCCCNC(=O)CCC(=O)N(O)CCCCCN.CS(=O)(=O)O [DFO] |  |  |  |  |  |  |  | stabilized HIF-1α in normoxia |  |  |  |  |  | 
O=C(CC(=O)C(F)(F)F)c1cccs1 [TTFA, 2-Thenoyltrifluoroacetone] |  |  |  | also induced RNA editing in normoxia |  |  |  |  |  |  |  |  |  | 
CO/C(=C/C(N)=O)[C@H](C)[C@H](/C=C/c1csc(-c2csc([C@@H](C)/C=C/C=C/C(C)C)n2)n1)OC [MXT, myxothiazol] | appeared to enhance the stabilization of HIF-1α in hypoxic monocytes in two of three donors | did not robustly stabilize HIF-1α | no statistically significant effect | induced SDHB mRNA editing in normoxia | statistically significantly increased | inhibited it both at 6% O2 and 1% O2 | inhibited it both at 6% O2 and 1% O2 |  | suppressed | completely suppressed oxygen consumption | suppressed | inhibited HRE-driven expression | increased relative to the degree of respiratory inhibition | SDHB c.136 C>U RNA editing ([2]; mild hypoxia (6% O2)): increased the editing level; stabilization of HIF-1α (HIF-1α [6]; THP-1, hypoxia 1% O2, 24 hours): inhibited it even at 1% O2; HRE-driven expression (ratio of HRE/Renilla luciferase activities) ([10]; 1% O2, 24 hours): inhibited HRE-driven expression
COC(=O)CNC(=O)C(=O)OC [DMOG] |  |  |  |  |  |  |  | stabilized HIF-1α in normoxia |  |  |  |  |  | HIF-1α stabilization (western blot) (HIF-1α [1]; normoxia, CD14+ and CD14− cells isolated after culture of MEPs for 1 or 2 days): caused robust normoxic stabilization of HIF-1α
